This note sets out measurements from patent EP4678638A1, “NEW E3 UBIQUITIN LIGASE LIGAND, PROTEIN DEGRADATION AGENT AND USE THEREOF” (priority 2023, dated 2024).

For one assay, the system named is EGFR. Briefly: Western blot degradation of EGFR (H1975 Cell). The format is cell-based, Human. To be noted: Table D2. The procedure:
Conventional Western blot assay was performed to evaluate the effects of the compounds of the present disclosure on the expression of target proteins in cells.
(1) Cell Seeding and Protein Harvesting: The selected cells were processed according to the cell seeding procedure and protein harvesting procedure in Table III-2. Table III-2 Cell Seeding and Protein Harvesting Procedures
(2) To the collected supernatant, 5X SDS sample loading buffer was added, followed by denaturation at 95°C for 5 minutes. The denatured samples were then separated by SDS-PAGE electrophoresis on a polyacrylamide gel. Proteins were transferred to a nitrocellulose membrane (0.45 µm NC membrane), blocked with blocking buffer at room temperature for 1 hour, and subjected to antibody incubation and development procedures according to the antibody manufacturer's instructions (Cell Signaling Technology).
Half-Maximal Degradation Concentration value (the drug concentration required for degrading proteins by 50%, abbreviated as DC50) reads method: comparing the grayscale values of Western blot bands from drug-treated samples with those from blank DMSO-treated controls, and identifying the drug concentration range at which the grayscale value is half that of the DMSO-treated control bands.
DC50 values can be calculated using ImageJ software to measure grayscale values of Western blot bands from drug-treated samples. The concentration-response curve is fitted to estimate the drug concentration corresponding to half the grayscale value.
Target protein remaining (%) refers to the percentage of target protein remaining in hPBMC cells after treatment with protein degrader compounds.
Calculation method for target protein remaining (%): Use ImageJ software to measure grayscale values of Western blot bands from drug (protein degrader)-treated samples. The grayscale value of drug-treated bands is divided by that of internal control protein bands, and the resulting quotient is normalized to obtain the relative percentage of remaining target protein after protein degrader treatment.
Target protein degradation rate (%) = 100% - target protein remaining (%).

Another assay has as its system H1975. Description: CCK-8 proliferation, NCI-H1975 (H1975). Format: cell-based, Human. The conditions noted are these: Homo sapiens, NCI-H1975; CCK-8; 96 hours; read-out: Inhibitory activity (IC50) on tumor cell proliferation, H1975. The method in brief:
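Tumor cells were cultured at 37°C with 5% CO2, seeded, and after 24h treated with compounds at 10 concentrations starting at 10µM (5-fold serial dilutions).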

For `O=C1CCN(c2cccc(CN3C[C@@H]4C[C@H]3CN4c3ccc(-c4cc(F)c5c(c4)C(=O)N(C(C(=O)Nc4nccs4)c4ncn6c4CCC6)C5)cc3)c2)C(=O)N1` (stereo partly drawn) [GT-05117, 2-(6,7-dihydro-5H-pyrrolo[1,2-c]imidazol-1-yl)-2-(6-(4-((1S,4S)-5-(3-(2,4-dioxotetrahydropyrimidin-1(2H)-yl)benzyl)-2,5-diazabicyclo[2.2.1]heptan-2-yl)phenyl)-4-fluoro-1-oxoisoindolin-2-yl)-N-(thiazol-2-yl)acetamide], in the assay with EGFR, the “Degradation of substrate protein EGFR (substrate protein remaining %)” value (shortened to “Degradation … (substrate protein remaining %)”) is “A (A is defined as 0% ≤ substrate protein remaining % ≤ 80%)”. In the assay with H1975, the IC50 was in the range of 10 to 50 nM.
The like results for `O=C1CCC(Nc2cccc(CN3C[C@@H]4C[C@H]3CN4c3ccc(-c4cc(F)c5c(c4)C(=O)N(C(C(=O)Nc4nccs4)c4ncn6c4CCC6)C5)cc3)c2)C(=O)N1` (stereo partly drawn) [GT-05118, 2-(6,7-dihydro-5H-pyrrolo[1,2-c]imidazol-1-yl)-2-(6-(4-((1S,4S)-5-(3-((2,6-dioxopiperidin-3-yl)amino)benzyl)-2,5-diazabicyclo[2.2.1]heptan-2-yl)phenyl)-4-fluoro-1-oxoisoindolin-2-yl)-N-(thiazol-2-yl)acetamide] were, in that order, “A (A is defined as 0% ≤ substrate protein remaining % ≤ 80%)” and 50 to 100 nM.
On the same counts, the results for `O=C1CCN(c2ccc(CN3C[C@@H]4C[C@H]3CN4c3ccc(-c4cc(F)c5c(c4)C(=O)N(C(C(=O)Nc4nccs4)c4ncn6c4CCC6)C5)cc3)nc2)C(=O)N1` (stereo partly drawn) [GT-05119, 2-(6,7-dihydro-5H-pyrrolo[1,2-c]imidazol-1-yl)-2-(6-(4-((1S,4S)-5-((5-(2,4-dioxotetrahydropyrimidin-1(2H)-yl)pyridin-2-yl)methyl)-2,5-diazabicyclo[2.2.1]heptan-2-yl)phenyl)-4-fluoro-1-oxoisoindolin-2-yl)-N-(thiazol-2-yl)acetamide] are “A (A is defined as 0% ≤ substrate protein remaining % ≤ 80%)” and 10 to 50 nM.
The like results for `O=C1CCC(c2ccc(CN3CCN(c4ccc(-c5cc(F)c6c(c5)C(=O)N(C(C(=O)Nc5nccs5)c5ncn7c5CCC7)C6)cc4)CC3)cc2)C(=O)N1` (centres unmarked) [GT-06163, 2-(6,7-dihydro-5H-pyrrolo[1,2-c]imidazol-1-yl)-2-(6-(4-(4-(4-(2,6-dioxopiperidin-3-yl)benzyl)piperazin-1-yl)phenyl)-4-fluoro-1-oxoisoindolin-2-yl)-N-(thiazol-2-yl)acetamide] were, in that order, “A (A is defined as 0% ≤ substrate protein remaining % ≤ 80%)” and 1 to 10 nM.
Regarding `O=C1CCN(c2ccc(CN3CCN(c4ccc(-c5cc(F)c6c(c5)C(=O)N(C(C(=O)Nc5nccs5)c5ncn7c5CCC7)C6)cc4)CC3)cc2)C(=O)N1` (centres unmarked) [GT-06164, 2-(6,7-dihydro-5H-pyrrolo[1,2-c]imidazol-1-yl)-2-(6-(4-(4-(4-(2,4-dioxotetrahydropyrimidin-1(2H)-yl)benzyl)piperazin-1-yl)phenyl)-4-fluoro-1-oxoisoindolin-2-yl)-N-(thiazol-2-yl)acetamide], the “Degradation … (substrate protein remaining %)” value with EGFR is “A (A is defined as 0% ≤ substrate protein remaining % ≤ 80%)”. The IC50 in the assay with H1975 was 1 to 10 nM.
`O=C1CCN(c2cccc(CN3CCN(c4ccc(-c5cc(F)c6c(c5)C(=O)N(C(C(=O)Nc5nccs5)c5ncn7c5CCC7)C6)cc4)CC3)c2)C(=O)N1` (centres unmarked) [GT-06165, 2-(6,7-dihydro-5H-pyrrolo[1,2-c]imidazol-1-yl)-2-(6-(4-(4-(3-(2,4-dioxotetrahydropyrimidin-1(2H)-yl)benzyl)piperazin-1-yl)phenyl)-4-fluoro-1-oxoisoindolin-2-yl)-N-(thiazol-2-yl)acetamide]: the “Degradation … (substrate protein remaining %)” value with EGFR is “A (A is defined as 0% ≤ substrate protein remaining % ≤ 80%)”. In the assay on H1975, the IC50 lay within 1 to 10 nM.
The like results for `O=C1CCN(c2ccc(CN3CCN(c4ccc(-c5cc(F)c6c(c5)C(=O)N(C(C(=O)Nc5nccs5)c5ncn7c5CCC7)C6)cc4)CC3)cn2)C(=O)N1` (centres unmarked) [GT-06166, 2-(6,7-dihydro-5H-pyrrolo[1,2-c]imidazol-1-yl)-2-(6-(4-(4-((6-(2,4-dioxotetrahydropyrimidin-1(2H)-yl)pyridin-3-yl)methyl)piperazin-1-yl)phenyl)-4-fluoro-1-oxoisoindolin-2-yl)-N-(thiazol-2-yl)acetamide] were, in that order, “A (A is defined as 0% ≤ substrate protein remaining % ≤ 80%)” and 1 to 10 nM.
On the same counts, the results for `O=C1CCN(c2ccc(CN3C[C@H]4C[C@@H]3CN4c3ccc(-c4cc(F)c5c(c4)C(=O)N(C(C(=O)Nc4nccs4)c4ncn6c4CCC6)C5)cc3)cc2)C(=O)N1` (stereo partly drawn) [GT-06177, 2-(6,7-dihydro-5H-pyrrolo[1,2-c]imidazol-1-yl)-2-(6-(4-((1R,4R)-5-(4-(2,4-dioxotetrahydropyrimidin-1(2H)-yl)benzyl)-2,5-diazabicyclo[2.2.1]heptan-2-yl)phenyl)-4-fluoro-1-oxoisoindolin-2-yl)-N-(thiazol-2-yl)acetamide] are “A (A is defined as 0% ≤ substrate protein remaining % ≤ 80%)” and 1 to 10 nM.
The like results for `O=C1CCN(c2cccc(CN3C[C@H]4C[C@@H]3CN4c3ccc(-c4cc(F)c5c(c4)C(=O)N(C(C(=O)Nc4nccs4)c4ncn6c4CCC6)C5)cc3)c2)C(=O)N1` (stereo partly drawn) [GT-06178, 2-(6,7-dihydro-5H-pyrrolo[1,2-c]imidazol-1-yl)-2-(6-(4-((1R,4R)-5-(3-(2,4-dioxotetrahydropyrimidin-1(2H)-yl)benzyl)-2,5-diazabicyclo[2.2.1]heptan-2-yl)phenyl)-4-fluoro-1-oxoisoindolin-2-yl)-N-(thiazol-2-yl)acetamide] were, in that order, “A (A is defined as 0% ≤ substrate protein remaining % ≤ 80%)” and 1 to 10 nM.
In the case of `O=C1CCN(c2ccc(CN3CCN(c4ccc(-c5cc(F)c6c(c5)C(=O)N(C(C(=O)Nc5nccs5)c5ncn7c5CCC7)C6)cc4)CC3)nc2)C(=O)N1` (centres unmarked) [GT-06229, 2-(6,7-dihydro-5H-pyrrolo[1,2-c]imidazol-1-yl)-2-(6-(4-(4-((5-(2,4-dioxotetrahydropyrimidin-1(2H)-yl)pyridin-2-yl)methyl)piperazin-1-yl)phenyl)-4-fluoro-1-oxoisoindolin-2-yl)-N-(thiazol-2-yl)acetamide], the “Degradation … (substrate protein remaining %)” value with EGFR is given as “A (A is defined as 0% ≤ substrate protein remaining % ≤ 80%)”. Also, in the assay with H1975, the IC50 lay in the range of 1 to 10 nM.
As to `O=C1CCC(c2ccc(CN3CCN(C4CCN(c5ccc(-c6cc(F)c7c(c6)C(=O)N(C(C(=O)Nc6nccs6)c6ncn8c6CCC8)C7)cc5)CC4)CC3)cc2)C(=O)N1` (centres unmarked) [GT-06243, 2-(6,7-dihydro-5H-pyrrolo[1,2-c]imidazol-1-yl)-2-(6-(4-(4-(4-(4-(2,6-dioxopiperidin-3-yl)benzyl)piperazin-1-yl)piperidin-1-yl)phenyl)-4-fluoro-1-oxoisoindolin-2-yl)-N-(thiazol-2-yl)acetamide], the “Degradation … (substrate protein remaining %)” value in the assay on EGFR is on record as “A (A is defined as 0% ≤ substrate protein remaining % ≤ 80%)”. The IC50 with H1975 was in the range of 1 to 10 nM.
The like results for `O=C1CCN(c2ccc(CN3CCN(C4CCN(c5ccc(-c6cc(F)c7c(c6)C(=O)N(C(C(=O)Nc6nccs6)c6ncn8c6CCC8)C7)cc5)CC4)CC3)cc2)C(=O)N1` (centres unmarked) [GT-06244, 2-(6,7-dihydro-5H-pyrrolo[1,2-c]imidazol-1-yl)-2-(6-(4-(4-(4-(4-(2,4-dioxotetrahydropyrimidin-1(2H)-yl)benzyl)piperazin-1-yl)piperidin-1-yl)phenyl)-4-fluoro-1-oxoisoindolin-2-yl)-N-(thiazol-2-yl)acetamide] were, in that order, “A (A is defined as 0% ≤ substrate protein remaining % ≤ 80%)” and 1 to 10 nM.
On the same counts, the results for `O=C1CCN(c2cccc(CN3CCN(C4CCN(c5ccc(-c6cc(F)c7c(c6)C(=O)N(C(C(=O)Nc6nccs6)c6ncn8c6CCC8)C7)cc5)CC4)CC3)c2)C(=O)N1` (centres unmarked) [GT-06245, 2-(6,7-dihydro-5H-pyrrolo[1,2-c]imidazol-1-yl)-2-(6-(4-(4-(4-(3-(2,4-dioxotetrahydropyrimidin-1(2H)-yl)benzyl)piperazin-1-yl)piperidin-1-yl)phenyl)-4-fluoro-1-oxoisoindolin-2-yl)-N-(thiazol-2-yl)acetamide] are “A (A is defined as 0% ≤ substrate protein remaining % ≤ 80%)” and 1 to 10 nM.
